Here are results for 3 compounds from PMC12606464, “Investigating NFE2L1 activators for targeted protein aggregate clearance: a follow-up study” (RSC Medicinal Chemistry, 2025).

Structures are written as SMILES.

Assay [1] concerns IRE1/XBP1s. The assay is described as follows: XBP1 endoplasmic reticulum stress reporter assay (CMV-XBP-GLuc). The format is cell-based, human. The following applies: Figure S5; for Mean diff, MG132 vs. RUN compound (log2-transformed values) / Mean diff, DMSO vs. treatment (log2-transformed values): Dunnett's multiple comparisons test; for Mean 2 (mean of log2-transformed values, treatment; DMSO = 0): N = 3. From the text: Next, we investigated whether the selected RUN compounds activate the NFE2L1 transcriptional program without triggering the unfolded protein response (UPR), a crucial cellular process induced by the accumulation of unfolded proteins in the endoplasmic reticulum (ER), potentially leading to ER stress. To monitor this, an alternative reporter was used to assess the activation of IRE1/XBP1s.[47] IRE1 is a bifunctional serine/threonine kinase and endoribonuclease embedded in the ER membrane, playing a central role in UPR signaling. Its RNase activity facilitates the splicing of X-box binding protein 1 (XBP1) mRNA. The spliced XBP1 acts as a transcription factor, promoting the re-establishment of ER homeostasis by upregulating genes involved in the ER-associated degradation (ERAD) pathway.[48–50] The reporter contains Gaussia luciferase positioned out of frame downstream of the XBP1 splice site, ensuring that active luciferase translation occurs only in the presence of ER stress.[51,52] Cells transfected with this reporter were treated with RUN compounds at 1, 5, and 10 μM, and luciferase activity was measured.
Figure S5: Impact of RUN compounds on ER stress-induced activation of the XBP1 reporter.
HEK293 cells were transfected with the CMV-XBP-GLuc reporter plasmid and allowed to stabilize overnight. Following stabilization, the cells were treated with MG132 or various concentrations of the test compounds (1, 2, 3, 5, 7.5, and 10 µM) for 16 hours. The Gaussia luciferase signal, which reflects XBP1 mRNA splicing, was adjusted based on cell viability as measured by the alamarBlue assay. Data are represented as Geomean ± GeoSD of three independent experiments ( n = 3. Statistical comparison of MG132 and RUN compounds vs DMSO and RUN compounds vs MG132 was performed on log2-transformed values using two-way repeated-measures ANOVA with Geisser –Greenhouse correction, followed by Dunnett’s multiple comparisons test with individual variances computed for each comparison. Results of the analysis are shown in Supplementary Table S15. […]
GraphPad Prism (v 10.6.1).
2.8 XBP1-endoplasmic reticulum (ER) stress reporter assay
HEK293 cells were seeded in 6-well plates and incubated for 24 hours before being transfected with a plasmid containing the CMV-XBP-Gluc reporter using Lipofectamine 2000.(4) After 6 hours, the transfected cells were subsequently transferred to 384-well plates, stabilized overnight, and treated with the proteasome inhibitor and ER stress inducer MG132 and/or various concentrations of RUN compounds (1, 5, and 10 µM) or vehicle (DMSO) for 16 hours. Luciferase activity was normalized to cell viability, which was assessed using the alamarBlue assay. The results are expressed as the fold change compared with the DMSO control, with the experiment conducted in biological triplicate. […]

In assay [2] the test system is ubiquitin-proteasome system. Description: Ub-G76V-GFP reporter degradation in U2OS cells. The format is cell-based. The following applies: U2OS cells, Fig. S3. From the text:
We next examined whether the selected RUN compounds activate the NFE2L1 pathway in a stress-independent manner, while preserving normal ubiquitin-dependent proteasomal degradation. This distinction is crucial, as the therapeutic benefit of NFE2L1 activation lies in its ability to alleviate proteotoxic stress and target disease-related proteins for degradation without compromising normal proteostasis. To assess this, U2OS cells stably expressing the short-lived fluorescent reporter Ub-G76V-GFP were treated with various concentrations of RUN compounds. […] We also examined whether compound-induced activation of NFE2L1 could be attributed to the generation of reactive oxygen species (ROS). To test this, the 3×PSMA4-ARE-LUC reporter assay was performed in the presence or absence of the antioxidant N-acetyl-L-cysteine (NAC). A decrease in reporter activity upon NAC treatment would indicate pathway activation through oxidative stress.
RUN compound (5 µM) for 8 hours. Fluorescence intensity was normalized to cell viability (measured by the alamarBlue assay) and compared to vehicle control (DMSO). Unlike the […]
as means ± SD from three independent experiments (n = 3). Statistical analysis was performed using a multiple unpaired t-test with Welch’s correction, with adjustment for multiple comparisons by the Holm–Šídák method (α = 0.05). ****p<0.0001. Detailed results of the analysis are shown in Supplementary Table S14. […]
2.4 Monitoring protein degradation using UbG76V-GFP reporter cells
U2OS cells stably expressing the Ub-G76V-GFP reporter were seeded into 96-well plates at and cultured overnight under standard conditions. On the following day, cells were treated with the indicated test compounds or DMSO vehicle control for 8 hours. After treatment, GFP fluorescence intensity was measured, providing a readout of proteasome-dependent degradation of the Ub-G76V-GFP substrate. Cell viability was then assessed in the same wells using the alamarBlue assay according to the manufacturer’s protocol. Viability values were used for normalization of fluorescence data to account for differences in cell number. Accumulation of GFP signal relative to DMSO-treated controls was interpreted as reduced degradation of UPS substrates, indicating potential effects of the compounds on the natural protein turnover.
Statistical comparison of RUN compounds with ASC-JM17 was performed using a multiple unpaired t-test with Welch’s correction, with adjustment for multiple comparisons by the Holm–Šídák method (α = 0.05) in GraphPad Prism (v 10.6.1). […]
RNA was extracted using […]
the RNeasy® Plus Micro Kit according to the manufacturer’s instructions. Complementary DNA (cDNA) was synthesized from RNA using either t he TATAA GrandScript cDNA Supermix (TATAA Biocenter) or the QuantiTect® Reverse Transcription Kit (Qiagen), following the respective protocols. Quantitative RT -PCR was performed on a LightCycler® 480 instrument (Roche Life Science) using the TATAA SYBR® Gr andMaster® Mix (TATAA […]
Biocenter). Gene expression levels were normalized to RPLP0, and relative expression was calculated using the ΔΔCt method. Data were expressed as fold change relative to the corresponding DMSO control. Statistical analysis of changes in gene expression was performed w ith a ratio paired t-test corrected for multiple comparisons using Holm-Šídák's method (α = 0.05) in GraphPad Prism (v 10.6.1).
Table S1. Sequences of primer pairs used in the qRT -PCR analysis of gene expression.

As to `COc1ccc(/C=C2\CC(N)C/C(=C\c3ccc(OC)c(OC)c3)C2=O)cc1OC` (stereo not drawn) [RUN-81], the entries for the “Mean diff, MG132 vs. RUN compound (log2-transformed values)” value in assay [1] (1 µM), in assay [1] (5 µM) and in assay [1] (10 uM) were 2.079, 2.509 and 3.74, respectively. The “Mean 2 (mean of log2-transformed values, treatment; DMSO = 0)” value in assay [1] (1 µM) is listed as 0.02701; in assay [1] (5 µM), 0.216; in assay [1] (10 uM) it was 0.2168. In addition, the “Mean diff, DMSO vs. treatment (log2-transformed values)” value in assay [1] (DMSO vs. 1 µM) was -0.02701; in assay [1] (DMSO vs. 5 µM), -0.216; in assay [1] (DMSO vs. 10 uM) it was -0.2168. Moreover, the “Ub-G76V-GFP reporter assay, mean” value in assay [2] turned out to be 1.14.
Consider `COc1ccc(/C=C2\CC(NC(=O)C3CCCC3)C/C(=C\c3ccc(OC)c(OC)c3)C2=O)cc1OC` (stereo not drawn) [RUN-89], for which the figures for the “Mean diff, MG132 vs. RUN compound (log2-transformed values)” value in assay [1] (1 µM), in assay [1] (5 µM) and in assay [1] (10 uM) were 1.977, 1.754 and 2.213, respectively. Further, the results for the “Mean 2 (mean of log2-transformed values, treatment; DMSO = 0)” value in assay [1] (1 µM), in assay [1] (5 µM) and in assay [1] (10 uM) were 0.1287, 0.9716 and 1.744, respectively. Besides, the “Mean diff, DMSO vs. treatment (log2-transformed values)” value is reported as -0.1287 in assay [1] (DMSO vs. 1 µM), -0.9716 in assay [1] (DMSO vs. 5 µM) and -1.744 in assay [1] (DMSO vs. 10 uM). Further, the “Ub-G76V-GFP reporter assay, mean” value in assay [2] was 1.17.
As for `COc1ccc(/C=C2\CC(NC(=O)c3ccccn3)C/C(=C\c3ccc(OC)c(OC)c3)C2=O)cc1OC` (stereo not drawn) [RUN-94], the “Mean diff, MG132 vs. RUN compound (log2-transformed values)” value in assay [1] (1 µM) was determined as 2.183; in assay [1] (5 µM) it was 1.118; in assay [1] (10 uM), 2.807. In addition, the “Mean 2 (mean of log2-transformed values, treatment; DMSO = 0)” value in assay [1] (1 µM) is reported as -0.07708; in assay [1] (5 µM), 1.607; in assay [1] (10 uM), 1.15. The “Mean diff, DMSO vs. treatment (log2-transformed values)” value in assay [1] (DMSO vs. 1 µM) is 0.07708; in assay [1] (DMSO vs. 5 µM) it was -1.607; in assay [1] (DMSO vs. 10 uM), -1.15. In addition, the “Ub-G76V-GFP reporter assay, mean” value in assay [2] was determined as 1.19.
